# Assay results as given in US6395683B1, “Heterocyclylbenzonitriles” (Bayer Aktiengesellschaft, priority 1994, dated 2002).
# Tests used:
# Assay in all cases: Post-emergence test
# Type in all cases: in vivo
# [1] = test system: Chenopodium; settings: 30 g/ha, after three weeks
# Protocol: (§1) Post-emergence Test Solvent: 5 parts by weight of acetone Emulsifier: 1 part by weight of alkylaryl polyglycol ether To produce a suitable preparation of active compound, 1 part by weight of active compound is mixed with the stated amount of solvent, the stated amount of emulsifier is added and the concentrate is diluted with water to the desired concentration. Test plants which have a height of 5-15 cm are sprayed with the preparation of the active compound in such a way as to apply the particular amounts of active compound desired per unit area. After three weeks, the degree of damage to the plants is rated in % damage in comparison to the development of the untreated control. The figures denote: 0%=no action (like untreated control) 100%=total destruction
# [2] = test system: barley; settings: 30 g/ha, barley (crop plant), after three weeks
# Protocol: as §1
# [3] = test system: Abutilon; settings: 30 g/ha, after three weeks
# Protocol: as §1
# [4] = test system: Amaranthus; settings: 30 g/ha, after three weeks
# Protocol: as §1
# [5] = test system: Veronica; settings: 30 g/ha, after three weeks
# Protocol: as §1
compound,measurement,setting,value
"CS(=O)(=O)Nc1cc(N2C(=O)C3=C(CCCC3)C2=O)c(F)cc1C#N [Example 1, N-(4-cyano-2-fluoro-5-methylsulphonylaminophenyl)-3,4,5,6-tetrahydrophthalimide]","degree of damage to the plants, % damage in comparison to untreated control",[1],95%
same,tolerance with respect to crop plants,[2],very good tolerance
same,"degree of damage to the plants, % damage in comparison to untreated control",[3],100%
same,"degree of damage to the plants, % damage in comparison to untreated control",[4],100%
same,"degree of damage to the plants, % damage in comparison to untreated control",[5],100%
